Reference: ChEMBL document CHEMBL1136763, “Antiestrogenically active 1,1,2-tris(4-hydroxyphenyl)alkenes without basic side chain: synthesis and biological activity” (J Med Chem, 2003)

Assays:
[1] = target: Estrogen receptor (Homo sapiens, UniProt Q92731+P03372); test: Inhibition of estradiol induced estrogen receptor transcriptional activation in MCF-7-2a cells; assay type: functional, cell-based
[2] = test system: MCF7; test: Inhibition of MCF-7 cell proliferation at 5 uM; assay type: functional, Homo sapiens

Compound `CCCC(=C(c1ccc(O)cc1)c1ccc(O)cc1)c1ccc(O)cc1` has an IC50 [1] of 70 nM and a T/C corr [2] of 102%.

`CCCCC(=C(c1ccc(O)cc1)c1ccc(O)cc1)c1ccc(O)cc1` gave an IC50 [1] of 240 nM and a T/C corr [2] of 114%.

With `CC/C(=C(\c1ccccc1)c1ccc(OCCN(C)C)cc1)c1ccccc1` [TAMOXIFEN] the T/C corr [2] was 15%.

In the case of `CC/C(=C(\c1ccc(O)cc1)c1ccc(OCCN(C)C)cc1)c1ccccc1`, the T/C corr [2] is reported as 25%.

`CCC(=C(c1ccc(O)cc1)c1ccc(O)cc1)c1ccc(O)cc1` showed an IC50 [1] of 10 nM and a T/C corr [2] of 97%.

In the case of `Oc1ccc(C=C(c2ccc(O)cc2)c2ccc(O)cc2)cc1`, the IC50 [1] is reported as 200 nM and the T/C corr [2] is reported as 70%.

`CC(=C(c1ccc(O)cc1)c1ccc(O)cc1)c1ccc(O)cc1` gave an IC50 [1] of 15 nM and a T/C corr [2] of 88%.
